The test system of test [1] is CARP-1, phospho-JNK1/2, phospho-H2AX, PARP. The test is described as follows: Western blot of CARP-1, phospho-JNK1/2, γH2AX, cleaved PARP in MDA-MB-468. Type of test: cell-based, human. (Immunoblotting shows a protein as a band on a membrane.)
In a further test the test system is MDA-MB-231 HBC cells. To be noted: MDA-MB-231, compared with untreated counterparts; ref [34]; cited from earlier work.
In another test the test system is Gst-H2AX. The test can be described thus: Gst-pulldown with Gst-H2AX. Type of test: binding, human. The settings on record: E. coli-expressed, 4 °C, 2 h, WB anti-HA, Figure 5A. Here is the method:
(§1) Logarithmically growing cells were either untreated or treated with different agents for various time periods. The cells were lysed to prepare protein extracts. IP was carried out by incubating approximately 1 mg of the protein lysate with appropriate antibodies. The immunoprecipitates were then analyzed by SDS-PAGE, followed by WB with respective, interacting protein. For Gst-pulldown, Gst-H2AX or various His-TAT-HA-tagged CARP-1 peptides were generated in Escherichia coli (E. coli) BL21 cells essentially as described by us previously. Briefly, the competent E. coli BL-21 (DE3) pLysS cells were transformed separately with various recombinant pGEX-4T-1 or pTAT-HA constructs. The transformed cells were then subjected to selection by combined presence of ampicillin and chloramphenicol; various isolates for each transformation were obtained and bacterial lysates were characterized for expression of fusion peptides. Cells from each isolate were grown in 4 mL of LB medium containing ampicillin only until the optical density (OD)600 reached 0.4–0.8. Expression of fusion peptides was induced over 2–4 h incubation periods after Isopropyl β-D-1-thiogalactopyranoside (IPTG) addition. The cells were harvested, and pellets were stored at −80 °C overnight. […]

The subject of a further test is Gst-H2AX (1–35). The test is described as follows: Gst-pulldown with Gst-H2AX (1–35). Type of test: binding, human. The settings on record: E. coli-expressed, 4 °C, 2 h, WB anti-HA, Figure 5B. As to the method: as §1
Another test deals with DBC1 (CCAR2). The test can be described thus: Co-immunoprecipitation with Dbc1 (CCAR2). Type of test: cell-based. To be noted: Dbc1-expressing PT67 (NIH3T3 murine fibroblast subline) cells, anti-Flag IP. Here is the method: (Clontech) were first transfected with recombinant PLNCX2/Flag-Dbc1 plasmid (10), and stable, neomycin-resistant sublines were generated and characterized for Dbc1 expression essentially as described by us before (5; [35]). The Dbc1 expressing PT67 cells were then separately transfected with pcDNA3 vector, pcDNA3-Gst, pcDNA3-Gst-H2AX, pcDNA3-EGFP, or pcDNA3-EGFP-H2AX (1–35) plasmids. Approximately 1mg of cell lysate from each of transfected, Dbc1-expressing, PT67 cells was subjected to immunoprecipitation using anti-Flag tag M2 antibodies (F1804, Sigma). The immunoprecipitates were then analyzed by WB by probing the membrane with anti-Gst (top autoradiograph), anti-p53 D2H90 rodent specific rabbit mAb (32532S; Cell Signaling; 2nd autoradiograph from top), or anti-Fag tag (for Dbc1) antibodies (3rd autoradiograph from top). The membranes containing […] of respective cell lysates (marked as whole cell lysates) were subsequently probed with anti-Gst tag (Bottom left autoradiograph) or anti-EGFP antibodies (Bottom right autoradiograph) to ascertain expression of transfected, Gst, Gst-tagged H2AX proteins, EGFP, and EGFP-H2AX (1–35) proteins. The presence of respective proteins is indicated by an arrowhead on the left side of each blot. Approximate location of various molecular weight markers is indicated on the right side of each blot. kDa, kilodalton.
© 2019 by the authors. […]

Another test addresses T1, H2AX (1–35) peptide (Homo sapiens, UniProt P16104).
T1 construct: CARP-1 (636–650) and H2AX (1–35) peptides, each with ≥90% purity, were commercially synthesized; purchased
The test can be described thus: Surface plasmon resonance, CARP-1 peptide with H2AX (1–35) peptide. Type of test: binding. The settings on record: SPR, PBST pH 7.4, 25 °C, 1:1 global fit. As to the method: Affinity purification of the Gst-tagged or His-tagged fusion proteins was carried out essentially following procedure previously described by us. Briefly, the bacteria expressing respective fusion protein were cultured in 500 mL of LB medium containing ampicillin until the OD600 reached 0.4–0.6. Protein expression was induced by addition of IPTG over an additional 2–4-h incubation at 37 °C. Cells were harvested, and pellets were stored overnight at −80 °C, and lysed in 4–5 mL of BPER lysis buffer containing DNAse I as detailed above. […] Fractions containing eluted fusion protein were pooled, and dialyzed overnight at 4 °C in 1–2 L of 1× Tris-buffered saline (BioRad, Hercules, CA, USA) with multiple buffer changes. Following measurement of protein concentration, the purified protein was aliquoted and snap-frozen in liquid N2 for storage. […]
Next, kinetics of CARP-1 binding with H2AX were determined by surface plasmon resonance (SPR) technology (Profacgen, Shirley, NY, USA). […] The signal changes after binding and washing (in AU) were recorded as the assay value. Selected protein-grafted regions in the SPR images were analyzed, and the average reflectivity variations of the chosen areas were plotted as a function of time. Real-time binding signals were recorded and analyzed using a data analysis module (DAM) obtained from Plexera Bioscience (Seattle, WA, USA). […]
On the technique in general: In SPR one partner is held on a chip, and binding of the other changes the refractive index at the surface.

No end group written: not given here.

As for `Cc1cc(NC(=O)c2cccc(NC(=O)/C=C/CN(C)C)c2)ccc1Nc1nccc(-c2cccnc2)n1` [JNK-IN-8], the JNK activation entry in test [1] (MDA-MB-468, 5 μM JNK-IN-8, WB) was “total loss of JNK activation”. The “levels of CARP-1” value is “elevated levels of CARP-1” in test [1] (MDA-MB-468, combination of JNK-IN-8 (5 μM) with Adriamycin, WB) and “elevated levels of CARP-1” in test [1] (MDA-MB-468, single agent (JNK-IN-8 at 5 μM), WB). In addition, in test [1] (MDA-MB-468, combined presence of JNK-IN-8 (5 μM) and Adriamycin, WB), the γH2AX entry is listed as “reduced levels of γH2AX”. Besides, the viabilities entry in the test on MDA-MB-231 HBC cells is “significantly reduced viabilities”.
“His-TAT-HA-CARP-1 (631–660): E. coli-expressed His-TAT-HA-tagged CARP-1 peptide (WSKLDPKTMKVNDLRKELESRALSSKGLKS; also: His, TAT and HA tags kept, end not given here)”: the “binding with Gst-H2AX protein” value with Gst-H2AX is “bound with Gst-H2AX protein”. Besides, in the test on Gst-H2AX (1–35), the “binding with Gst-H2AX (1–35)” value is “bound with Gst-H2AX and Gst-H2AX (1–35) proteins”.
With “H2AX (1–35): commercially synthesized H2AX (1–35) peptide; epitope of H2AX (tested as EGFP-tagged protein) (MSGRGKTGGKARAKAKSRSSRAGLQFPVGRVHRLL; UniProt P16104 1-35, looked up, fragment)”, in the test with DBC1 (CCAR2), the “interaction with DBC1” value was “does not interact”.
Take “WSKLDPKTMKVNDLRKELESRALSSKGLKS [CARP-1 (631–660)]”: on H2AX (1–35) peptide (read-out: Ka (association rate constant)), the kon came out at 2320 M⁻¹ s⁻¹. Moreover, the koff at H2AX (1–35) peptide (read-out: Kd (dissociation rate constant)) is 0.000292 s⁻¹.

Values taken from PMC6406907, “A H2AX–CARP-1 Interaction Regulates Apoptosis Signaling Following DNA Damage” (Cancers, 2019).
